Results reported in ChEMBL document CHEMBL5247648, “Design, Synthesis, and Anti-Cancer Evaluation of Novel Cyclic Phosphate Prodrug of Gemcitabine” (J Med Chem, 2023).
The source made the active and inactive calls. No cut-off for these calls is given here.

Experiments:
[1] = AUC (0 to infinity) in Beagle dog at 1 mg/kg, iv measured for 0.083 to 24 hrs by LC-MS/MS analysis; assay type: ADME, organism-based, Canis lupus familiaris; design: time upper 24 hrs, time lower 0.083 hrs, dose 1 mg/kg, route iv; details: in vivo
CWR22R [2] = test: In vivo antitumor activity against human 22Rv1 cells xenografted in castrated male nude Balb/c mouse assessed as relative increment ratio at 50 mg/kg, ip administered twice a week measured after 28 days relative to control; assay type: functional; details: time 28 day
MIA PaCa-2 = test: Antiproliferative activity against human MIA PaCa-2 cells assessed as inhibition of cell proliferation treated for 72 hrs by resazurin dye-based fluorescence assay; assay type: functional; details: MIA PaCa-2, 72 h
[3] = Toxicity in castrated male nude Balb/c mouse xenografted with human 22Rv1 cells assessed as toxic signs at 50 mg/kg, ip administered twice a week measured after 28 days; assay type: organism-based, CWR22R; details: in vivo, 672 h, time 28 day
MV4-11 = test: Antiproliferative activity against human MV4-11 cells assessed as inhibition of cell proliferation treated for 72 hrs by resazurin dye-based fluorescence assay; assay type: functional; details: MV4-11, 72 h
[4] = Prodrug conversion in human plasma assessed as mixture of benzyl 2-(((((2R,3R,5R)-5-(4-amino-2-oxopyrimidin-1(2H)-yl)-4,4-difluoro-3-hydroxytetrahydrofuran-2-yl)methoxy)(hydroxy)phosphoryl)oxy)acetate and benzyl 2-(((((2R,3R,5R)-5-(4-amino-2-oxopyrimidin-1(2H)-yl)-4,4-difluoro-2-(hydroxymethyl)tetrahydrofuran-3-yl)oxy)(hydroxy)phosphoryl)oxy)acetate metabolites formation incubated for 72 hrs by 31P-NMR analysis; assay type: ADME, cell-free
BXPC-3 [5] = test: Induction of apoptosis in human BXPC-3 cells assessed as late cells at 25 nM incubated for 24 hrs by […] (reference value: 1.24 %); assay type: functional
BXPC-3 [6] = test: Cell cycle arrest in human BXPC-3 cells assessed as cell accumulation at S phase at 25 to 100 nM incubated for 24 hrs by flow cytometry; assay type: functional, cell-based; details: dose 25-100 nM
[7] = Toxicity in castrated male nude Balb/c mouse xenografted with human 22Rv1 cells assessed as animal weight loss at 50 mg/kg, ip administered twice a week measured after 28 days; assay type: organism-based, CWR22R; details: in vivo, 672 h, time 28 day
[8] = Prodrug conversion in human plasma assessed as mixture of benzyl 2-(((((2R,3R,5R)-5-(4-amino-2-oxopyrimidin-1(2H)-yl)-4,4-difluoro-3-hydroxytetrahydrofuran-2-yl)methoxy)(hydroxy)phosphoryl)oxy)acetate and benzyl 2-(((((2R,3R,5R)-5-(4-amino-2-oxopyrimidin-1(2H)-yl)-4,4-difluoro-2-(hydroxymethyl)tetrahydrofuran-3-yl)oxy)(hydroxy)phosphoryl)oxy)acetate metabolites formation incubated for 72 hrs by 1H-NMR analysis; assay type: ADME, cell-free
[9] = Metabolic stability in beagle dog plasma assessed as half life incubated for 6 hrs by HPLC analysis; assay type: ADME, cell-free, Canis lupus familiaris
CWR22R [10] = test: Antiproliferative activity against human 22Rv1 cells assessed as inhibition of cell proliferation treated for 72 hrs by resazurin dye-based fluorescence assay; assay type: functional; details: 22Rv1, 72 h
BXPC-3 [11] = test: Induction of apoptosis in human BXPC-3 cells assessed as early cells at 100 nM incubated for 24 hrs by […] (reference value: 1.68 %); assay type: functional
BXPC-3 [12] = test: Upregulation of cleaved caspase-3 expression in human BXPC-3 cells at 25 to 100 nM incubated for 24 hrs by Western blot analysis; assay type: functional, cell-based; details: dose 25-100 nM
BXPC-3 [13] = test: Induction of apoptosis in human BXPC-3 cells assessed as viable cells at 50 nM incubated for 24 hrs by […] (reference value: 93.51 %); assay type: functional; details: read-out: Activity
BXPC-3 [14] = test: Induction of apoptosis in human BXPC-3 cells assessed as necrotic cells at 25 nM incubated for 24 hrs by […] (reference value: 3.57 %); assay type: functional
BXPC-3 [15] = test: Induction of apoptosis in human BXPC-3 cells assessed as viable cells at 100 nM incubated for 24 hrs by […] (reference value: 93.51 %); assay type: functional; details: read-out: Activity
[16] = Clearance in Beagle dog at 1 mg/kg, iv measured for 0.083 to 24 hrs by LC-MS/MS analysis; assay type: ADME, organism-based, Canis lupus familiaris; details: in vivo, time 0.083-24 hrs
[17] = Metabolic stability in rat plasma assessed as half life incubated for 6 hrs by HPLC analysis; assay type: ADME, cell-free
BXPC-3 [18] = test: Induction of apoptosis in human BXPC-3 cells assessed as late cells at 100 nM incubated for 24 hrs by […] (reference value: 1.24 %); assay type: functional
[19] = Metabolic stability in human plasma assessed as half life incubated for 6 hrs by HPLC analysis; assay type: ADME, cell-free
BXPC-3 [20] = test: Induction of apoptosis in human BXPC-3 cells assessed as late cells at 50 nM incubated for 24 hrs by […] (reference value: 1.24 %); assay type: functional
BXPC-3 [21] = test: Induction of apoptosis in human BXPC-3 cells assessed as early cells at 50 nM incubated for 24 hrs by […] (reference value: 1.68 %); assay type: functional
Huh-7 = test: Antiproliferative activity against human Huh-7 cells assessed as inhibition of cell proliferation treated for 72 hrs by resazurin dye-based fluorescence assay; assay type: functional; details: Huh-7, 72 h
CWR22R [22] = test: In vivo antitumor activity against human 22Rv1 cells xenografted in castrated male nude Balb/c mouse assessed as tumor growth inhibition at 50 mg/kg, ip administered twice a week measured after 28 days relative to control; assay type: functional; details: 22Rv1, 672 h, time 28 day, read-out: TGI
BXPC-3 [23] = test: Induction of apoptosis in human BXPC-3 cells assessed as early cells at 25 nM incubated for 24 hrs by […] (reference value: 1.68 %); assay type: functional
[24] = Toxicity in nude Balb/c mouse xenografted with human BXPC-3 cells assessed as apparent signs of toxicity at 50 to 80 mg/kg, ip measured after 28 days; assay type: organism-based; details: in vivo, 672 h, dose 50-80 mg/kg, time 28 day
BXPC-3 [25] = test: In vivo antitumor activity against human BXPC-3 cells xenografted in nude Balb/c mouse assessed as tumor growth inhibition at 50 to 80 mg/kg, ip measured after 28 days; assay type: functional, organism-based; details: dose 50-80 mg/kg, time 28.0 day
BXPC-3 [26] = test: Induction of apoptosis in human BXPC-3 cells assessed as viable cells at 25 nM incubated for 24 hrs by […] (reference value: 93.51 %); assay type: functional; details: read-out: Activity
[27] = Toxicity in castrated male nude Balb/c mouse xenografted with human 22Rv1 cells assessed as tolerance at 50 mg/kg, ip administered twice a week measured after 28 days; assay type: organism-based, CWR22R; details: in vivo, 672 h, time 28 day
MM1.S = test: Antiproliferative activity against human MM1.S cells assessed as inhibition of cell proliferation treated for 72 hrs by resazurin dye-based fluorescence assay; assay type: functional
[28] = Half life in Beagle dog at 1 mg/kg, iv measured for 0.083 to 24 hrs by LC-MS/MS analysis; assay type: ADME, organism-based, Canis lupus familiaris; details: in vivo, time 0.083-24 hrs
[29] = Prodrug conversion in human plasma assessed as metabolites formation incubated for 24 hrs by 31P-NMR analysis; assay type: ADME, cell-free
JeKo-1 = test: Antiproliferative activity against human JeKo-1 cells assessed as inhibition of cell proliferation treated for 72 hrs by resazurin dye-based fluorescence assay; assay type: functional; details: JeKo-1, 72 h
[30] = Prodrug conversion in human plasma assessed as mixture of benzyl 2-(((((2R,3R,5R)-5-(4-amino-2-oxopyrimidin-1(2H)-yl)-4,4-difluoro-3-hydroxytetrahydrofuran-2-yl)methoxy)(hydroxy)phosphoryl)oxy)acetate and benzyl 2-(((((2R,3R,5R)-5-(4-amino-2-oxopyrimidin-1(2H)-yl)-4,4-difluoro-2-(hydroxymethyl)tetrahydrofuran-3-yl)oxy)(hydroxy)phosphoryl)oxy)acetate metabolites formation incubated for 72 hrs by LC-MS analysis; assay type: ADME, cell-free
BXPC-3 [31] = test: Induction of apoptosis in human BXPC-3 cells assessed as necrotic cells at 100 nM incubated for 24 hrs by […] (reference value: 3.57 %); assay type: functional
CWR22R [32] = test: Antiproliferation activity against human 22Rv1 cells xenografted in castrated male nude Balb/c mouse assessed as downregulation of Ki-67 level at 50 mg/kg, ip administered twice a week measured after 28 days by immunohistochemical assay relative to control; assay type: functional, organism-based; details: time 28.0 day
BXPC-3 [33] = test: Antiproliferative activity against human BXPC-3 cells assessed as inhibition of cell proliferation treated for 72 hrs by resazurin dye-based fluorescence assay; assay type: functional; details: BXPC-3, 72 h
BXPC-3 [34] = test: Upregulation of P21 WAF1/Cip1 expression in human BXPC-3 cells at 25 to 100 nM incubated for 24 hrs by Western blot analysis; assay type: functional, cell-based; details: dose 25-100 nM
BXPC-3 [35] = test: Induction of apoptosis in human BXPC-3 cells assessed as necrotic cells at 50 nM incubated for 24 hrs by […] (reference value: 3.57 %); assay type: functional
[36] = Cmax in Beagle dog at 1 mg/kg, iv measured for 0.083 to 24 hrs by LC-MS/MS analysis; assay type: ADME, organism-based, Canis lupus familiaris; design: time upper 24 hrs, time lower 0.083 hrs, dose 1 mg/kg, route iv; details: in vivo

SMILES: Nc1ccn([C@@H]2O[C@@H]3COP(=O)(OCC(=O)OCc4ccccc4)O[C@H]3C2(F)F)c(=O)n1 (stereo partly specified)
- AUC(0-inf) [1]: 520 ng·h/mL
- T/C (CWR22R [2]): 35.2%
- IC50 (MIA PaCa-2): 12.5 nM
- Activity [3]: Non-Toxic
- IC50 (MV4-11): 5.4 nM
- Drug metabolism [4]: Metabolite_Detected
- Activity (BXPC-3 [5]): 2.31%
- Activity (BXPC-3 [6]): Active
- Activity [7]: Non-Toxic
- Drug metabolism [8]: Metabolite_Detected
- half-life [9]: 40 min
- IC50 (CWR22R [10]): 10.6 nM
- Activity (BXPC-3 [11]): 3.5%
- Activity (BXPC-3 [12]): inactive
- viability at 0.05 µM (BXPC-3 [13]): 90.1%
- Activity (BXPC-3 [14]): 3.17%
- viability at 0.1 µM (BXPC-3 [15]): 88.6%
- clearance [16]: 32.5 mL/min/kg
- half-life [17]: 40 min
- Activity (BXPC-3 [18]): 3.48%
- half-life [19]: 40 min
- Activity (BXPC-3 [20]): 2.73%
- Activity (BXPC-3 [21]): 3.19%
- IC50 (Huh-7): 16.2 nM
- inhibition in vivo at 50 mg/kg (CWR22R [22]): 68.5%
- Activity (BXPC-3 [23]): 2.87%
- Activity [24]: Non-Toxic
- Activity (BXPC-3 [25]): Active
- viability at 0.025 µM (BXPC-3 [26]): 91.7%
- Activity [27]: Non-Toxic
- IC50 (MM1.S): 3.6 nM
- half-life [28]: 7.2 min
- Drug metabolism [29]: Metabolite_Detected
- IC50 (JeKo-1): 19.2 nM
- Drug metabolism [30]: Metabolite_Detected
- Activity (BXPC-3 [31]): 4.42%
- Activity (CWR22R [32]): Active
- IC50 (BXPC-3 [33]): 16.5 nM
- Activity (BXPC-3 [34]): Active
- Activity (BXPC-3 [35]): 4.02%
- Cmax [36]: 3600 ng/mL
